Assay [1] concerns P. berghei (ANKA GFP-luc) blood stage parasites. The assay is described as follows: Single dose in vivo efficacy, P. berghei blood stage, bioluminescence imaging. On the set-up: species or system CD-1 mice. The procedure:
CD-1 mice (female, 6-7-week-old) were inoculated with 1×10^6 P. berghei (ANKA GFP-luc) blood stage parasites intravenously 24 hours before treatment and compounds were administered as a single 100 or 50 mg/kg dose orally at 0 hour. Parasitemia was monitored by the In vivo Imaging System (IVIS 100, Xenogen; Caliper Life Science) to acquire the bioluminescence signal. Animals with parasitemia exceeding 25% were euthanized.
Infection proceeds rapidly in untreated mice (control), which were euthanized around day 6 of the study. Compound 37 and 68 were tested at different times; thus the artesunate control (ART) is shown for each compound. […] All images are normalized to the same color scale.

In assay [2] the test system is P. berghei strain ANKA. The assay is described as follows: In vivo antimalarial activity, mice infected with P. berghei strain ANKA, three daily oral doses. Details: species or system NMVRI mice. As to conditions: 50 mg/kg orally, three consecutive daily doses (24, 48, 72 h after infection), day 4, relative to control group. The procedure: In vivo antimalarial activity for certain compounds of the invention was assessed for groups of three-five female NMVRI mice ([…]) intravenously infected on day 0 with P. berghei strain ANKA (2×10^7 parasitized erythrocytes per ml). In control mice, parasitemia typically rose to ˜40% by day 3 after infection, and control mice died between day 5 and day 7 after infection. Compounds with a dosage of 50 mg/kg were formulated in 7% Tween80/3% ethanol and were administered orally as three consecutive daily doses (24, 48, and 72 h after infection). The blood smears were collected and stained on day 4 after infection. The degree of infection (parasitemia expressed as percent infected erythrocytes) was determined microscopically, with a detection limit of 1 parasite in 10,000 erythrocytes (that is, 0.01%). Activity was calculated as the difference between the mean percent parasitemia for the control and treated groups expressed as a percent relative to the control group. Using this method, a compound of the invention (8R,9R,10S)-10-(hydroxymethyl)-N-(4-methoxyphenyl)-9-(4-(phenylethynyl)phenyl)-1,6-diazabicyclo[6.2.0]decane-6-carboxamide (compound 27) reduced parasitaemia by 57% on day 4. […] Quantification was conducted by comparison to a calibration curve prepared using blank plasma and processed in the same way as the samples.

Assay [3] relates to P. falciparum Dd2. The assay is described as follows: Activity against the Dd2 strain of P. falciparum (SYBR Green I, 72 h). The format is cell-based. The settings on record: Plasmodium falciparum, DD2, 72 h, P. falciparum Dd2, 72 h incubation. The method, boiled down:
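Parasites in human RBCs at 1% parasitemia and 1.0% hematocrit, exposed to compounds (0.125% DMSO) for 72 h at 37°C under 93% N2/4% CO2/3% O2. SYBR Green I in saponin/Triton lysis buffer added, 24 h staining, fluorescence read at 485/530 nm. EC50 derived against 20 μM mefloquine background and DMSO baseline.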

For assay [4], the system named is P. berghei (ANKA luc-GFP) sporozoites. The assay is described as follows: In vivo P. berghei liver stage assay. On the set-up: species or system CD-1 mice. As to conditions: single PO dose. On the procedure: CD-1 mice were inoculated (IV) with 1×10^5 P. berghei (ANKA luc-GFP) sporozoites freshly dissected out from A. stephensi and immediately treated with a single dose (PO) of vehicle or compound 37 (25, 5.0, 1.0 or 0.2 mg/kg) at 0 hour. Bioluminescence signals from the transgenic parasites were monitored by the In vivo Imaging System (IVIS 100, Xenogen; Caliper Life Science).
The ED50 for compound 37 in this assay was 1 mg/kg.

In assay [5] the test system is P. berghei (ANKA GFP-luc). The assay is described as follows: Prevention of transmission of P. berghei to mosquitoes (oocyst count in midguts). The format is in vivo, CD-1 mice / Anopheles stephensi mosquitoes. As to conditions: single ascending doses (all doses), mosquitoes fed Day 2, midguts dissected Day 9. The procedure:
CD-1 mice were infected with P. berghei (ANKA GFP-luc) for 96 hours prior to treatment with vehicle [70% PEG400 and 30% (5% glucose in H2O)] or single ascending doses of compound 37 (Day 0). Average % parasitemia on Day 0 was 2.1%. On Day 2 of the study, mice were anesthetized and female Anopheles stephensi mosquitoes were allowed to feed on the mice for 20 minutes. On Day 9, the midguts of the mosquitoes were dissected out, and oocysts were enumerated microscopically (12.5× magnification, oocysts visible as puncta in the control, FIG. 2, Panel A).

Where [6] appears, read: single oral dose, P. berghei blood stage.

As to `C[C@H]1[C@H](OC(=O)CCC(=O)O)O[C@@H]2O[C@@]3(C)CC[C@H]4[C@H](C)CC[C@@H]1[C@@]24OO3` [ART, artesunate, reference compound], the “effect on parasites” value in assay [1] (single 100 mg/kg dose) is “rapid suppression of parasites, but, due to its short half-life, the parasites re-emerge quickly”.
One may read the EC50 as the midpoint of the concentration-response curve. `COc1ccc(NC(=O)N2CCCCN3[C@H](CO)[C@H](c4ccc(C#Cc5ccccc5)cc4)[C@@H]3C2)cc1` [Compound 27, (8R,9R,10S)-10-(hydroxymethyl)-N-(4-methoxyphenyl)-9-(4-(phenylethynyl)phenyl)-1,6-diazabicyclo[6.2.0] decane-6-carboxamide] came in with a reduction of parasitaemia in assay [2] of 57%. Besides, the concentration for a half-maximal effect (EC50) in assay [3] stood at 4 nM.
Broadly, the ED50 is the dose at which the effect has come halfway, by size or by number of responders. A low value points to an effect at a small dose. Consider `COc1ccc(NC(=O)N2CCCCN3[C@H](CN)[C@H](c4ccc(C#Cc5ccccc5)cc4)[C@@H]3C2)cc1` [Compound 37, (8R,9S,10S)-10-(aminomethyl)-N-(4-methoxyphenyl)-9-[4-(2-phenylethynyl)phenyl]-1,6-diazabicyclo[6.2.0] decane-6-carboxamide], for which, in assay [1] (single 100 mg/kg oral dose), the time parasitemia repressed entry is “about 1 week”. In assay [1] (setting [6]), this molecule had an ED25 of 100 mg/kg. In addition, the EC50 in assay [3] worked out at 148 nM. In assay [4] (Plasmodium berghei, in Mus musculus, liver stage), this molecule had an ED50 of 1 mg/kg. For the same molecule, in assay [4] (dosed at ≥5 mg/kg), the “parasitemia after sporozoite inoculation” value is recorded as “remained parasite free”. Also, in assay [5], the “oocysts in mosquito midguts” value is reported as “no detectable oocysts”.
Regarding `COc1ccc(NC(=O)N2CCCCN3[C@H](CN(C)C)[C@H](c4ccc(C#Cc5ccccc5)cc4)[C@@H]3C2)cc1` [Compound 68, (8R,9S,10S)-10-[(dimethylamino)methyl]-N-(4-methoxyphenyl)-9-[4-(2-phenylethynyl)phenyl]-1,6-diazabicyclo[6.2.0] decane-6-carboxamide], the “cure of the infected animals” value in assay [1] (single 50 mg/kg oral dose) is reported as 100%. The ED100 in assay [1] (setting [6]) is on record as at most 50 mg/kg. The same molecule yielded an EC50 in assay [3] of 3 nM.
In assay [3], `O=C(Nc1ccc(OCCN2CCOCC2)cc1)N1CCCCN2[C@H](CO)[C@H](c3ccc(C#Cc4ccccc4)cc3)[C@@H]2C1` [Compound 83, (8R,9R,10S)-10-(hydroxymethyl)-N-(4-(2-morpholinoethoxy)phenyl)-9-(4-(phenylethynyl)phenyl)-1,6-diazabicyclo[6.2.0] decane-6-carboxamide] came in with an EC50 of 24 nM.
In assay [3], `COc1ccc(NC(=O)N2CCCCN3[C@@H](CN4CCOCC4)[C@H](c4ccc(C#Cc5ccccc5)cc4)[C@@H]3C2)cc1` [Compound 84, (8R,9S,10R)-N-(4-methoxyphenyl)-10-(morpholinomethyl)-9-(4-(phenylethynyl)phenyl)-1,6-diazabicyclo[6.2.0] decane-6-carboxamide] returned an EC50 of 52 nM.
In assay [3], `COc1ccc(NC(=O)N2CCCCN3[C@@H](COCC(=O)O)[C@H](c4ccc(C#Cc5ccccc5)cc4)[C@@H]3C2)cc1` [Compound 85, 2-(((8R,9R,10R)-6-((4-methoxyphenyl)carbamoyl)-9-(4-(phenylethynyl)phenyl)-1,6-diazabicyclo[6.2.0]decan-10-yl)methoxy)acetic acid] returned an EC50 of 0.4 nM.
In the case of `COc1ccc(NC(=O)N2CCCCN3[C@@H](COCCC(=O)O)[C@H](c4ccc(C#Cc5ccccc5)cc4)[C@@H]3C2)cc1` [Compound 86, 3-(((8R,9R,10R)-6-((4-methoxyphenyl)carbamoyl)-9-(4-(phenylethynyl)phenyl)-1,6-diazabicyclo[6.2.0]decan-10-yl)methoxy)propanoic acid], the EC50 in assay [3] worked out at 2 nM.
Molecule `COC(=O)CCOC[C@@H]1[C@H](c2ccc(C#Cc3ccccc3)cc2)[C@@H]2CN(C(=O)Nc3ccc(OC)cc3)CCCCN12` [Compound 87, methyl 3-(((8R,9R,10S)-6-((4-methoxyphenyl)carbamoyl)-9-(4-(phenylethynyl)phenyl)-1,6-diazabicyclo[6.2.0]decan-10-yl)methoxy)propanoate] showed an EC50 in assay [3] of 1 nM.
`CNC[C@H]1[C@H](c2ccc(C#Cc3ccccc3)cc2)[C@@H]2CN(C(=O)Nc3ccc(OC)cc3)CCCCN12` [Compound 88, (8R,9S,10R)-N-(4-methoxyphenyl)-10-((methylamino)methyl)-9-(4-(phenylethynyl)phenyl)-1,6-diazabicyclo[6.2.0] decane-6-carboxamide]: in assay [3], the EC50 stood at 25 nM.
Still for that read-out and setting: the value for `COc1ccc(NC(=O)N2CCCCN3[C@H](COCCC(=O)N4CCOCC4)[C@H](c4ccc(C#Cc5ccccc5)cc4)[C@@H]3C2)cc1` [Compound 89, (8R,9R,10S)-N-(4-methoxyphenyl)-10-((3-morpholino-3-oxopropoxy)methyl)-9-(4-(phenylethynyl)phenyl)-1,6-diazabicyclo[6.2.0] decane-6-carboxamide] was 8 nM; that for `COc1ccc(NC(=O)N2CCCCN3[C@H](CNCC(F)(F)F)[C@H](c4ccc(C#Cc5ccccc5)cc4)[C@@H]3C2)cc1` [Compound 90, (8R,9S,10S)-N-(4-methoxyphenyl)-9-(4-(phenylethynyl)phenyl)-10-(((2,2,2-trifluoroethyl)amino)methyl)-1,6-diazabicyclo[6.2.0] decane-6-carboxamide] was 228 nM; that for `COc1ccc(NC(=O)N2CCCCN3[C@@H](COCCC(=O)N4CCOCC4)[C@H](c4ccc(C#Cc5ccccc5)cc4)[C@@H]3C2)cc1` [Compound 91, (8R,9R,10R)-N-(4-methoxyphenyl)-10-((3-morpholino-3-oxopropoxy)methyl)-9-(4-(phenylethynyl)phenyl)-1,6-diazabicyclo[6.2.0] decane-6-carboxamide] was 14 nM.
As for `COc1ccc(NC(=O)N2CCCCN3[C@@H](CN(C)C)[C@H](c4ccc(C#Cc5ccccc5)cc4)[C@@H]3C2)cc1` [Compound 92, (8R,95S,10R)-10-((dimethylamino)methyl)-N-(4-methoxyphenyl)-9-(4-(phenylethynyl)phenyl)-1,6-diazabicyclo[6.2.0] decane-6-carboxamide], the EC50 in assay [3] amounted to 108 nM.
In assay [3], `N#Cc1ccc(NC(=O)N2CCCCN3[C@H](CO)[C@H](c4ccc(C#Cc5ccccc5)cc4)[C@@H]3C2)cc1` [Compound 93, (8R,9R,10S)-N-(4-cyanophenyl)-10-(hydroxymethyl)-9-(4-(phenylethynyl)phenyl)-1,6-diazabicyclo[6.2.0] decane-6-carboxamide] yielded an EC50 of 138 nM.
On to `CCN(CC)C[C@@H]1[C@H](c2ccc(C#Cc3ccccc3)cc2)[C@@H]2CN(C(=O)Nc3ccc(OC)cc3)CCCCN12` [Compound 94, (8R,9S,10S)-10-((diethylamino)methyl)-N-(4-methoxyphenyl)-9-(4-(phenylethynyl)phenyl)-1,6-diazabicyclo[6.2.0] decane-6-carboxamide], for which, in assay [3], the EC50 amounted to 14 nM.
The molecule `COc1ccc(NC(=O)N(C)C[C@H]2[C@@H](c3ccc(C#Cc4ccccc4)cc3)[C@@H](CO)N2C)cc1` [Compound 95, 1-(((2R,3R,4S)-4-(hydroxymethyl)-1-methyl-3-(4-(phenylethynyl)phenyl)azetidin-2-yl)methyl)-3-(4-methoxyphenyl)-1-methylurea] yielded a concentration giving a half-maximal response (EC50) in assay [3] of 5000 nM.

For the origin of these results see patent publication US11325913B2, “Compounds and methods for the treatment of malaria” (THE BROAD INSTITUTE, INC., priority 2013, dated 2022).
